Measurements from patent US7598255B2 (Janssen Pharmaceutica NV, priority 2005, dated 2009).
Structures can show the parent of a compound that is named as a salt.

What was measured:
[1] = molecular target: T1, 5-HT2B receptor (Homo sapiens, UniProt P41595); assay: Affinity for 5HT2 receptor binding sites, h5-HT2B, [3H]mesulergine; settings: CHO h5-HT2B membranes
[2] = molecular target: T2, human recombinant 5-HT2C receptor (Homo sapiens, UniProt P28335); assay: Affinity for 5HT2 receptor binding sites, h5-HT2C, [3H]mesulergine; settings: CHO h5-HT2C membranes
T2 sequence (P28335 33-458): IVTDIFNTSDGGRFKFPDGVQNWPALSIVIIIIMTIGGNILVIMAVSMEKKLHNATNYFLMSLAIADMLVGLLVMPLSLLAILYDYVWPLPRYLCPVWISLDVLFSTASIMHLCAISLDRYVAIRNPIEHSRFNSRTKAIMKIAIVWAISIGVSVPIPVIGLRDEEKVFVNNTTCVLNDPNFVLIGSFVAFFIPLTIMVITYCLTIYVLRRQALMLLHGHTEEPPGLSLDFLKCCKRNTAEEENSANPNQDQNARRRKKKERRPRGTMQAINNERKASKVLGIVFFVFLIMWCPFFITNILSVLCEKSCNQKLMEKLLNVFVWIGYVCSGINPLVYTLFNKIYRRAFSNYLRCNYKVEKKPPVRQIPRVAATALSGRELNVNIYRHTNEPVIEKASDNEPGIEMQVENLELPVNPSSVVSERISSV

[3] = molecular target: T3, 5-HT2A receptor (Homo sapiens, UniProt P28223); assay: Affinity for 5-HT2A receptor binding sites, radioligand binding with [3H]ketanserin; settings: read-out: Ki 5-HT2A, rat cortex membranes (assay 2) or NIH3T3 h5-HT2A membranes (assay 3), table does not say which
[4] = molecular target: rat 5-HT7a receptor (Rattus norvegicus, UniProt P32305); assay: Affinity for 5-HT7 receptor binding sites, radioligand binding with [3H]5-CT; settings: membranes of HEK-293 cells with rat 5-HT7a, 1 nM [3H]5-CT
Procedure, shortened: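 Competition binding on membranes from HEK-293 cells stably expressing rat 5-HT7a, 135 μg protein/mL in 50 mM Tris-HCl pH 7.5, 5 mM EDTA. Incubated 60 min at RT with 1 nM [3H]5-CT and increasing compound concentrations; nonspecific binding with 10 μM 5-HT. Filtration and scintillation counting, in triplicate.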

[5] = molecular target: T3, 5-HT2A receptor; assay: In vitro functional assay for 5-HT2 receptor (intracellular calcium, FLIPR), 5-HT2A; format: cell-based; settings: same cell lines as receptor binding, read-out: pKb 5-HT2A (converted)
From the text: The 5-HT2 receptors are linked to the Gq family of G proteins and to subsequent activation of phospholipase C, induction of phosphoinositide metabolism and to an increase in intracelular calcium concentration. The same cell lines as described in the previous section (receptor binding) were used for the FLIPR experiments.

[6] = molecular target: T1, 5-HT2B receptor; assay: In vitro functional assay for 5-HT2 receptor (intracellular calcium, FLIPR), 5-HT2B; format: cell-based; settings: same cell lines as receptor binding, read-out: pKb 5-HT2B (converted)
Procedure: In vitro functional properties of these compounds on the different 5-HT2 receptor substypes were determined using fluorometric imaging plate reader (FLIPR) based calcium assay as previously described (Porter, R. H. et al. Br. J. Pharmacol. 1999, 128, 13-20; Jerman, J. C. et al. Eur. J. Pharmacol. 2001, 414, 23-30). The 5-HT2 receptors are linked to the Gq family of G proteins and to subsequent activation of phospholipase C, induction of phosphoinositide metabolism and to an increase in intracelular calcium concentration. The same cell lines as described in the previous section (receptor binding) were used for the FLIPR experiments.

[7] = molecular target: human recombinant 5-HT6 receptor (Homo sapiens, UniProt P50406); assay: Affinity for 5-HT6 receptor binding sites, [3H]LSD; settings: HEK-293 h5-HT6 membranes
Sequence of human recombinant 5-HT6 receptor (P50406 whole entry): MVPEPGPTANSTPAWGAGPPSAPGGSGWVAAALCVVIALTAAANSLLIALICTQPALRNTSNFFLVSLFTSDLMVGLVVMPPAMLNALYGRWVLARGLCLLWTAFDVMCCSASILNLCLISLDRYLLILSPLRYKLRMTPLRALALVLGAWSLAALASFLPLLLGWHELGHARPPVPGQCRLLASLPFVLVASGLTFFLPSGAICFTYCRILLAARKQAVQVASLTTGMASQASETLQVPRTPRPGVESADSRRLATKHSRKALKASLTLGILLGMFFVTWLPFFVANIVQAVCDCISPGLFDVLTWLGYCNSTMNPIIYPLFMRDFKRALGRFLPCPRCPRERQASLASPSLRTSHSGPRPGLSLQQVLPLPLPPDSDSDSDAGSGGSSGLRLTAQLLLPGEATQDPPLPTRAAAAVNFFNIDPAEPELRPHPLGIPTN

T3 sequence (P28223 whole entry): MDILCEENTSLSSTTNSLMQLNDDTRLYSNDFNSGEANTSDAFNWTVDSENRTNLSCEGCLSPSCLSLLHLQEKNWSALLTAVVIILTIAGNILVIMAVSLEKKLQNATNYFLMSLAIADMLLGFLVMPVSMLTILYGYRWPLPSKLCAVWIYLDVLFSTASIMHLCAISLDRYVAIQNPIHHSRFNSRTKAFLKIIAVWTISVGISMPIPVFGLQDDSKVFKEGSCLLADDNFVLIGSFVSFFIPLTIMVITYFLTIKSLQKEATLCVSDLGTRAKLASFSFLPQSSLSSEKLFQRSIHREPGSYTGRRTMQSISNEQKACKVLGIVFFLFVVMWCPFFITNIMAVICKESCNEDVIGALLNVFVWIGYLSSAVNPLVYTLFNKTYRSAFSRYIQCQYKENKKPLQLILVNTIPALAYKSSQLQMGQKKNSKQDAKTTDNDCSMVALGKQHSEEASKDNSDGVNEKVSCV
T1 sequence (P41595 whole entry): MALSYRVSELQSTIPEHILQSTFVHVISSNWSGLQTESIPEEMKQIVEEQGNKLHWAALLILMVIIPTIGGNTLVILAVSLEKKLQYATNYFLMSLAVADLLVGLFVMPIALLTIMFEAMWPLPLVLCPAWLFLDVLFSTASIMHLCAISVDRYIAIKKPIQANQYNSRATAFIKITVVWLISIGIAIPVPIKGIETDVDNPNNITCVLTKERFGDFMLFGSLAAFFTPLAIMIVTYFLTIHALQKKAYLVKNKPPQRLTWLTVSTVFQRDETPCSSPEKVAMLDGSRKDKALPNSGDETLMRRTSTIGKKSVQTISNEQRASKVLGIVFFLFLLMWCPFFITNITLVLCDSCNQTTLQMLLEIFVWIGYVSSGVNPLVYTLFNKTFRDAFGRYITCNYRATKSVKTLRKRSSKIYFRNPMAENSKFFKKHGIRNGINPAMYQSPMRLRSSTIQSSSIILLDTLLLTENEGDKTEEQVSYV
Sequence of rat 5-HT7a receptor (P32305 whole entry): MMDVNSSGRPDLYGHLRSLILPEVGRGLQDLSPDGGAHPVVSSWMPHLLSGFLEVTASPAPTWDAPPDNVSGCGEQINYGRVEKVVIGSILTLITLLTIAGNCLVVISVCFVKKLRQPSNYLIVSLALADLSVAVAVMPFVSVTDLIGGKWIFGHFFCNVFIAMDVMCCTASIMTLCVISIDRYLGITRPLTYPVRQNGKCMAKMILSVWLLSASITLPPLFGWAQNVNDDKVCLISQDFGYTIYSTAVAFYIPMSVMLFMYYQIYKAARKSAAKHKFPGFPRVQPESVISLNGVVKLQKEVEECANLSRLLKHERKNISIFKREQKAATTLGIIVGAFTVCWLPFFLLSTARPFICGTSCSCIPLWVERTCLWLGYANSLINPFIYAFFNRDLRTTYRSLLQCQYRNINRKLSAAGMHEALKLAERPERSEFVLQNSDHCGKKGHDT

| SMILES | Ki [1] | Ki [2] | Ki [3] | Ki [4] | Kb [5] | Kb [6] | Ki [7] |
| --- | --- | --- | --- | --- | --- | --- | --- |
| Fc1ccc(Cc2nc3c(c(-c4ccc(F)cc4)n2)CNCC3)cc1 [Example 13, 2-(4-Fluoro-benzyl)-4-(4-fluoro-phenyl)-5,6,7,8-tetrahydro-pyrido[4,3-d]pyrimidine] | 2200 nM | 1000 nM | 12.5 nM | > 10000 nM | 79.4 nM | – | – |
| Fc1ccc(-c2nc(C3CCCC3)nc3c2CNCC3)cc1 [Example 17, 2-Cyclopentyl-4-(4-fluoro-phenyl)-5,6,7,8-tetrahydro-pyrido[4,3-d]pyrimidine] | 250 nM | 70 nM | 4 nM | > 10000 nM | 7.94 nM | 3980 nM | – |
| Cc1ccc(-c2nc(C3CCCC3)nc3c2CNCC3)cc1 [Example 18, 2-Cyclopentyl-4-p-tolyl-5,6,7,8-tetrahydro-pyrido[4,3-d]pyrimidine] | 80 nM | 60 nM | 10 nM | 525 nM | 25.1 nM | 200 nM | 330 nM |
| CC(C)c1nc2c(c(-c3ccc(F)cc3)n1)CNCC2 [Example 21, 4-(4-Fluoro-phenyl)-2-isopropyl-5,6,7,8-tetrahydro-pyrido[4,3-d]pyrimidine hydrochloride] | 1190 nM | 1170 nM | 25 nM | > 10000 nM | 31.6 nM | – | > 10000 nM |
| CC(C)c1nc2c(c(-c3ccc(F)cc3)n1)CCNCC2 [Example 50, 4-(4-Fluoro-phenyl)-2-isopropyl-6,7,8,9-tetrahydro-5H-pyrimido[4,5-d]azepine hydrochloride] | 20 nM | 80 nM | 3.7 nM | 240 nM | – | 5.01 nM | 260 nM |
| Fc1ccc(Cc2nc3c(c(-c4ccc(F)cc4)n2)CCNCC3)cc1 [Example 57, 2-(4-Fluoro-benzyl)-4-(4-fluoro-phenyl)-6,7,8,9-tetrahydro-5H-pyrimido[4,5-d]azepine] | 40 nM | 50 nM | 0.7 nM | 550 nM | 6.31 nM | 126 nM | 80 nM |
| CN1CCc2nc(Cc3ccc(F)cc3)nc(-c3ccc(F)cc3)c2CC1 [Example 62, 2-(4-Fluoro-benzyl)-4-(4-fluoro-phenyl)-7-methyl-6,7,8,9-tetrahydro-5H-pyrimido[4,5-d]azepine] | 21 nM | 21 nM | 0.75 nM | 5270 nM | 1.58 nM | 50.1 nM | 27 nM |
| C=C1CN(C)CCc2c1nc(Cc1ccc(F)cc1)nc2-c1ccc(F)cc1 [Example 63, 2-(4-Fluoro-benzyl)-4-(4-fluoro-phenyl)-7-methyl-9-methylene-6,7,8,9-tetrahydro-5H-pyrimido[4,5-d]azepine] | 52 nM | 46 nM | 1.5 nM | > 10000 nM | 15.8 nM | 501 nM | 60 nM |
| Fc1ccc(-c2nc(Cc3ccccc3)nc3c2CCCNC3)cc1 [Example 64, 2-Benzyl-4-(4-fluoro-phenyl)-6,7,8,9-tetrahydro-5H-pyrimido[4,5-c]azepine hydrochloride] | 1300 nM | 70 nM | 10 nM | > 10000 nM | 79.4 nM | – | 1300 nM |
| Cc1ccc(-c2nc(Cc3ccccc3)nc3c2CCN(Cc2ccccc2)C3)cc1 [Example 71, 2,7-Dibenzyl-4-p-tolyl-5,6,7,8-tetrahydro-pyrido[3,4-d]pyrimidine] | 4330 nM | 3580 nM | 1030 nM | > 10000 nM | – | – | 300 nM |
| Fc1ccc(-c2nc(Cc3ccccc3)nc3c2CCNC3)cc1 [Example 76, 2-Benzyl-4-(4-fluoro-phenyl)-5,6,7,8-tetrahydro-pyrido[3,4-d]pyrimidine hydrochloride] | 315 nM | 75 nM | 9 nM | 150 nM | 100 nM | – | 300 nM |
| Cc1ccc(-c2nc(Cc3ccccc3)nc3c2CCNC3)cc1 [Example 77, 2-Benzyl-4-p-tolyl-5,6,7,8-tetrahydro-pyrido[3,4-d]pyrimidine hydrochloride] | 200 nM | 130 nM | 15 nM | 22 nM | – | – | 400 nM |
| c1ccc(Cc2nc3c(c(-c4ccccc4)n2)CCNC3)cc1 [Example 78, 2-Benzyl-4-phenyl-5,6,7,8-tetrahydro-pyrido[3,4-d]pyrimidine] | 900 nM | 380 nM | 25 nM | 400 nM | 79.4 nM | – | – |
| CC(C)c1nc2c(c(-c3ccc(F)cc3)n1)CCNC2 [Example 80, 4-(4-Fluoro-phenyl)-2-isopropyl-5,6,7,8-tetrahydro-pyrido[3,4-d]pyrimidine hydrochloride] | 158 nM | 940 nM | 11 nM | > 10000 nM | – | – | 2800 nM |
| CN1CCc2c(nc(Cc3ccccc3)nc2-c2ccc(F)cc2)C1 [Example 82, 2-Benzyl-4-(4-fluoro-phenyl)-7-methyl-5,6,7,8-tetrahydro-pyrido[3,4-d]pyrimidine hydrochloride] | 500 nM | 20 nM | 2 nM | > 10000 nM | 7.94 nM | 3980 nM | 230 nM |
| CC(C)N1CCc2c(nc(Cc3ccccc3)nc2-c2ccc(F)cc2)C1 [Example 83, 2-Benzyl-4-(4-fluoro-phenyl)-7-isopropyl-5,6,7,8-tetrahydro-pyrido[3,4-d]pyrimidine] | 1000 nM | 300 nM | 30 nM | > 10000 nM | – | – | 230 nM |
| CC(C)c1nc(-c2ccc(F)cc2)c2c(n1)C(C)CNC2 (stereo not shown) [Example 100, 4-(4-Fluoro-phenyl)-2-isopropyl-8-methyl-5,6,7,8-tetrahydro-pyrido[4,3-d]pyrimidine hydrochloride] | 900 nM | 300 nM | 14 nM | > 10000 nM | 100 nM | – | – |
| Cc1ccc(-c2nc(C(C)C)nc3c2CNCC3C)cc1 (stereo not shown) [Example 102, 2-Isopropyl-8-methyl-4-p-tolyl-5,6,7,8-tetrahydro-pyrido[4,3-d]pyrimidine hydrochloride] | 150 nM | 230 nM | 20 nM | > 10000 nM | – | – | 370 nM |
| CC(C)c1nc2c(c(-c3ccc(F)cc3)n1)CCC(N1CCCC1)C2 (stereo not shown) [Example 107, 4-(4-Fluoro-phenyl)-2-isopropyl-7-pyrrolidin-1-yl-5,6,7,8-tetrahydro-quinazoline] | 275 nM | 500 nM | 12 nM | > 10000 nM | – | – | 4000 nM |
| CNC1CCc2nc(C(C)C)nc(-c3ccc(F)cc3)c2C1 (stereo not shown) [Example 109, [4-(4-Fluoro-phenyl)-2-isopropyl-5,6,7,8-tetrahydro-quinazolin-6-yl]-methyl-amine hydrochloride] | > 10000 nM | > 10000 nM | 400 nM | > 10000 nM | – | – | > 10000 nM |
